How the values were obtained:
[1] = system: mecA gene; Staphylococcus ribosomal nucleic acids; assay: HPA after thermal lysis, base hydrolysis and neutralization (Examples 5-7); type: binding, S. aureus
Description: The cultured S. aureus specimens were lysed by suspending 1 μl loops of bacteria in 150 μl of lysis buffer and then incubating at 105° C. for 15 minutes. Next, 100 μl of 2 N LiOH base solution was added and RNA was hydrolyzed by incubating the mixtures at 60° C. for 15 minutes. Hydrolyzed samples were neutralized by the addition of 100 μl of a neutralizing reagent that included 2 N HCl and 100 mM succinate buffer (pH 5.5 prior to acidification with HCl). Specifically hybridized probe was detected by standard HPA, essentially as described in Example 1.
Specimens (1 μl loops of bacteria) were treated and tested essentially as described in Example 5 with the following differences: incubation for lysis was for 15 minutes and incubation for hybridization was for 45 minutes for samples shown in Tables 7-8, while incubation for lysis was for 10 minutes and incubation for hybridization was for 20 minutes for samples shown in Table 9. All of the base-treated solutions were neutralized by the addition of 250 μl of 0.8 N HCl containing 100 mM succinate.
2′-methoxy analogs of the AE-labeled DNA probes were prepared by standard phosphoramidite synthesis using 2′ methoxy phosphoramidite analogs. Additional linker positions, which are indicated by parentheses in Table 11, for probe 2 were also prepared for testing. Deoxy probes and 2′-methoxy probe analogs were tested essentially as described in Example 5, except as noted below. Probes synthesized using 2′-methoxy nucleotide analogs are particularly identified by the “MeO” designations. Brief summaries of the procedures used to obtain the results are appended to the tables.

[2] = system: mecA gene; Staphylococcus spp. and S. aureus ribosomal nucleic acids; assay: HPA probe panel on clinical and ATCC isolates (Examples 8-9); type: binding
Description: Oxacillin MIC results were provided by an outside laboratory. The GP Probe results were determined as described in Example 8.

[3] = Table 8, lysis 15 minutes, hybridization 45 minutes
[4] = Table 9, lysis 10 minutes, hybridization 20 minutes
[5] = Table 11, neutralize 250 μl 0.8 N HCl containing 100 mM succinate, hybridize 45 minutes at 60° C.
[6] = Table 6, GP18(Neg), MSSA ATCC #12600
[7] = Table 6, GP1214(Neg), MSSA ATCC #29247
[8] = Table 6, GP1217(Pos), MRSA ATCC #33591
[9] = Table 6, GP1218(Pos), MRSA ATCC #43866
[10] = Table 7, lysis 15 minutes, hybridization 45 minutes
[11] = Table 10, neutralize 100 μl 2 N HCl containing 200 mM succinate, hybridize 45 minutes at 60° C.

## GCGATAATGGTGAAGTAGAAATGACTGAACGTCCG (DNA, backbone and methylation of C not given here; acridinium ester label on internal non-nucleotide linker; listed as Staphylococcus aureus) [probe 3]
[1]; [3]
  GP18(Neg) RLU: 371 RLU
  GP1217(Pos) RLU: 36123 RLU
  Probe alone Avg RLU: 445 RLU
[1]; [4]
  GP1217(Pos) RLU: 46566 RLU
  Probe alone Avg RLU: 684 RLU
[1]; [5]
  GP1214(Neg) RLU: 1303 RLU
  GP1217(Pos) RLU: 36993 RLU
  Probe alone Avg RLU: 1098 RLU

## CCGAACTGAGAACAACTTTATGGGATTTGC (chemistry not given here) [Staphylococcus spp. probe with helpers]
[2]; ATCC MRSA, 1 isolate, Oxacillin MIC 16 μg/ml
  HPA Results (# positive for indicated probes): 1
[2]; ATCC MSSA, 1 isolate, Oxacillin MIC 1 μg/ml
  HPA Results (# positive for indicated probes): 1
[2]; ATCC MSSA, 4 isolates, Oxacillin MIC 0.5 μg/ml
  HPA Results (# positive for indicated probes): 4
[2]; ATCC MSSA, 6 isolates, Oxacillin MIC ≦0.25 μg/ml
  HPA Results (# positive for indicated probes): 6
[2]; Clinical MRSA, 8 isolates, Oxacillin MIC 16 μg/ml
  HPA Results (# positive for indicated probes): 8
[2]; Clinical MRSA, 107 isolates, Oxacillin MIC >16 μg/ml
  HPA Results (# positive for indicated probes): 107
[2]; Clinical MSSA, 28 isolates, Oxacillin MIC 0.5 μg/ml
  HPA Results (# positive for indicated probes): 28
[2]; Clinical MSSA, 99 isolates, Oxacillin MIC ≦0.25 μg/ml
  HPA Results (# positive for indicated probes): 99
[2]; GP21 (S. aureus, mecA(−), MSSA)
  HPA Results (RLU): 373232 RLU
[2]; GP22 (CoNS, mecA(+))
  HPA Results (RLU): 225141 RLU
[2]; GP23 (S. aureus, mecA(−))
  HPA Results (RLU): 301657 RLU
[2]; GP24 (S. aureus, mecA(+))
  HPA Results (RLU): 306718 RLU
[2]; GP25 (S. aureus, mecA(+))
  HPA Results (RLU): 456426 RLU
[2]; GP26 (S. aureus, mecA(−))
  HPA Results (RLU): 262267 RLU
[2]; GP27 (CoNS, mecA(−))
  HPA Results (RLU): 182304 RLU
[2]; GP28 (S. aureus, mecA(−))
  HPA Results (RLU): 246636 RLU
[2]; GP29 (S. aureus, mecA(+))
  HPA Results (RLU): 388748 RLU
[2]; GP30 (S. aureus, mecA(−))
  HPA Results (RLU): 440128 RLU
[2]; GP31 (S. aureus, mecA(+))
  HPA Results (RLU): 349207 RLU
[2]; GP32 (S. aureus, mecA(−))
  HPA Results (RLU): 432041 RLU
[2]; GP33 (S. aureus, mecA(+))
  HPA Results (RLU): 160830 RLU
[2]; GP34 (S. aureus, mecA(−))
  HPA Results (RLU): 634079 RLU
[2]; GP35 (S. aureus, mecA(+))
  HPA Results (RLU): 543089 RLU
[2]; GP36 (S. aureus, mecA(−))
  HPA Results (RLU): 370898 RLU
[2]; GP37 (S. aureus, mecA(+))
  HPA Results (RLU): 397722 RLU
[2]; GP38 (S. aureus, mecA(+))
  HPA Results (RLU): 387613 RLU
[2]; GP39 (S. aureus, mecA(−))
  HPA Results (RLU): 280358 RLU
[2]; GP40 (S. aureus, mecA(−))
  HPA Results (RLU): 292407 RLU
[2]; Neg Control (Hybridization Buffer)
  HPA Results (RLU): 1775 RLU
[2]; Pos Control GP1217 (S. aureus, mecA(+), MRSA)
  HPA Results (RLU): 170530 RLU
[2]; S. epidermidis, 1 isolate, Oxacillin MIC >16 μg/ml
  HPA Results (# positive for indicated probes): 1
[2]; S. epidermidis, 2 isolates, Oxacillin MIC ≦0.25 μg/ml
  HPA Results (# positive for indicated probes): 2
[2]; S. hemoliticus, 1 isolate, Oxacillin MIC ≦0.25 μg/ml
  HPA Results (# positive for indicated probes): 1
[2]; S. hominis, 1 isolate, Oxacillin MIC ≦0.25 μg/ml
  HPA Results (# positive for indicated probes): 1
[2]; S. hyicus-hyicus, 1 isolate, Oxacillin MIC ≦0.25 μg/ml
  HPA Results (# positive for indicated probes): 1
[2]; S. intermedius, 1 isolate, Oxacillin MIC ≦0.25 μg/ml
  HPA Results (# positive for indicated probes): 1
[2]; S. saprophyticus, 1 isolate, Oxacillin MIC 0.5 μg/ml
  HPA Results (# positive for indicated probes): 1
[2]; S. simulans, 1 isolate, Oxacillin MIC ≦0.25 μg/ml
  HPA Results (# positive for indicated probes): 1
[2]; S. warneri, 1 isolate, Oxacillin MIC ≦0.25 μg/ml
  HPA Results (# positive for indicated probes): 1
[1]; [6]
  RLU: 170,434 RLU
[1]; [7]
  RLU: 234,286 RLU
[1]; [8]
  RLU: 225,772 RLU
[1]; [9]
  RLU: 203,488 RLU

## CCACTCAAGAGAGACAACATTTTCGACTAC (chemistry not given here) [S. aureus probe with helpers]
[1]; [6]
  RLU: 148,780 RLU
[1]; [7]
  RLU: 203,725 RLU
[1]; [8]
  RLU: 199,476 RLU
[1]; [9]
  RLU: 163,825 RLU

## CGATTGTGACACGATAGCCATCTTCATGTTGGAGC (DNA, backbone and methylation of C not given here; acridinium ester label on internal non-nucleotide linker; listed as Staphylococcus aureus) [probe 6]
[1]; [10]
  GP18(Neg) RLU: 1195 RLU
  GP1217(Pos) RLU: 38158 RLU
  Probe alone Avg RLU: 6117 RLU
[1]; [4]
  GP1217(Pos) RLU: 55947 RLU
  Probe alone Avg RLU: 1004 RLU
[1]; [5]
  GP1214(Neg) RLU: 1994 RLU
  GP1217(Pos) RLU: 43307 RLU
  Probe alone Avg RLU: 1540 RLU

## MeO-probe 2: 2′-methoxy analog of AE-labeled probe 2 (SEQ ID NO:2); linker position not printed in Table 10 (DNA CGCTATGATCCCAATCTAACTTCCACATACC; all 2'-O-methyl, backbone and T or U not given here; acridinium ester label on internal non-nucleotide linker; listed as Staphylococcus aureus)
[1]; [11]
  GP1214(Neg) RLU: 5242 RLU
  GP1217(Pos) RLU: 69687 RLU
  Probe alone Avg RLU: 2378 RLU

## MeO-probe 1: 2′-methoxy analog of AE-labeled probe 1 (SEQ ID NO:1) (DNA GGTATGTGGAAGTTAGATTGGGATCATAGCG; all 2'-O-methyl, backbone and T or U not given here; acridinium ester label on internal non-nucleotide linker; listed as Staphylococcus aureus)
[1]; [11]
  GP1214(Neg) RLU: 2308 RLU
  GP1217(Pos) RLU: 62594 RLU
  Probe alone Avg RLU: 1879 RLU
[1]; [5]
  GP1214(Neg) RLU: 975 RLU
  GP1217(Pos) RLU: 33659 RLU
  Probe alone Avg RLU: 779 RLU

## GCTCCAACATGAAGATGGCTATCGTGTCACAATCG (DNA, backbone and methylation of C not given here; acridinium ester label on internal non-nucleotide linker; listed as Staphylococcus aureus) [probe 5]
[1]; [10]
  GP18(Neg) RLU: 1250 RLU
  GP1217(Pos) RLU: 37472 RLU
  Probe alone Avg RLU: 4088 RLU
[1]; [4]
  GP1217(Pos) RLU: 42816 RLU
  Probe alone Avg RLU: 2823 RLU

## CGGACGTTCAGTCATTTCTACTTCACCATTATCGC (DNA, backbone and methylation of C not given here; acridinium ester label on internal non-nucleotide linker; listed as Staphylococcus aureus) [probe 4]
[1]; [3]
  GP18(Neg) RLU: 641 RLU
  GP1217(Pos) RLU: 20192 RLU
  Probe alone Avg RLU: 690 RLU
[1]; [4]
  GP1217(Pos) RLU: 34352 RLU
  Probe alone Avg RLU: 734 RLU

Source: patent US20040229268A1, “Method and kit for identifying antibiotic-resistant microorganisms” (priority 2003, published 2004)
